From publication PMC11267380, “USP25 Elevates SHLD2‐Mediated DNA Double‐Strand Break Repair and Regulates Chemoresponse in Cancer” (Advanced Science, 2024)

System: USP25 phosphorylation at SQ/TQ motif in HEK293T cells
Assay: USP25 phosphorylation (p-SQ/TQ) after IR, IP and immunoblot
Type: cell-based
Conditions: IR (10 Gy), Ku55933 (25 µM) for 2 h pretreatment or phosphatase treatment of immunoprecipitated USP25
Method: Figure 4 Regulation of the DDR signaling by USP25. a) HEK293T cells were left untreated or treated with IR (10 Gy) or 5‐Fu (20 uM). USP25 was immunoprecipitated and immunoblotted with phospho‐SQ/TQ (p‐SQ/TQ). b) HEK293T cells were pretreated with Ku55933 (25 µM) for 2 h followed by treatment with IR(10 Gy). After 1 h, USP25 was immunoprecipitated, left untreated, or treated with phosphatase and immunoblotted with p‐SQ/TQ. c) HEK293T cells transfected with USP25^WT and indicated constructs were left treated with IR(10 Gy). USP25 was immunoprecipitated and immunoblotted with p‐SQ/TQ. d) USP25 knockdowm U2OS cells rescued with USP25WT or USP25T523A were treated with IR (2 Gy), and co‐localization USP25 with γH2AX was detected by immunofluorescence. n>80 in each group. e) HEK293T cells were left untreated or treated with 5‐Fu (20 uM). […] The interaction USP25 and MDC1 deletions was detected. g) HEK293T cells transfected with USP25^WT or USP25^T523A were treated with IR, and cell lysates were incubated with GST or GST‐MDC1‐BRCT in vitro. The interaction USP25 and MDC1‐BRCT was detected. h) Non‐phosphorylated or phosphorylated Thr523 peptide was conjugated to beads and incubated with purified GST‐MDC1‐BRCT domain in buffer. […]

Structure (SMILES): O=c1cc(-c2cccc3c2Sc2ccccc2S3)oc(N2CCOCC2)c1 [Ku55933]
- USP25 phosphorylation: abolished
